Key:
human sperm = test: CASA (Computer Assisted Sperm Analysis) assay of human sperm motility; assay type: cell-based; conditions: n = 4 donors, read-out: average relative motility index (RMI) IC50
Method: Human semen samples were obtained from the Department of Obstetrics and Gynecology, University of North Carolina Memorial Hospital, Chapel Hill, NC. […] Semen samples were allowed to liquefy for 30 minutes and subjected to standard semen analysis to determine acceptability before freezing. All samples were stored in liquid nitrogen, and de-identified by the Department of Obstetrics and Gynecology, University of North Carolina Memorial Hospital, Chapel Hill, NC before further processing. A density gradient (Isolate catalog number 99264, Irving Scientific, Irving CA, or SpermCare catalog number 2221 and 2222, InvitroCare Inc., Frederick MD) was used to prepare spermatozoa for further analysis. At least 3 independent experiments were done per assay, each using a single donor.
Computer Assisted Sperm Analysis (CASA) was conducted as previously described. Briefly sperm were washed after the density gradient with EP buffer-0.4% BSA and resuspended in modified M16 for compound treatments. Sperm were diluted to 5 x 10^6/mL in 12x75 mm glass tubes with the appropriate treatment and incubated at 37°C in 5% CO2. […] The relative mobility index (RMI) is a measure of the effect of compound on sperm and is calculated as the VSL x %normal motility and normalized to the appropriate DMSO control.

[1] = EP012 plasma half-life in rats; assay type: in vivo; conditions: rat, iv, preliminary testing, 1 mg/kg i.v. bolus
Method: Preliminary half-life measurements for EP012 were carried out by Calvert Laboratories ([…]
The intravenous formulation was prepared by mixing an appropriate amount of EP012 (1 mg/kg) with an appropriate volume of intravenous vehicle (DMSO). The pH of the intravenous formulations was confirmed to be 7.4-7.6 and instilled through a syringe filter for sterilization prior to dosing. Three Sprague Dawley male rats (8-14 weeks; 300 to 325 g) were surgically implanted with a catheter in a jugular vein using polyurethane tubing and glycerol or dextrose solution as the lumen lock solution. The intravenous formulation was administered as a bolus injection into a lateral tail vein.
Serial blood samples (~0.30 mL each), were obtained from each animal via the jugular vein catheter at the following timepoints post-dose: 0.083, 0.167, 0.333, 0.5, 1, 2, 4, 8, 12, and 24 hours. Plasma (~125 µL per sample) was harvested following centrifugation of the chilled blood samples at 3000 RPM for 10 minutes at +4 °C. Derived plasma was transferred into prelabeled plastic vials and stored frozen at approximately -70 °C or lower until processing.
Sample preparation and LC-MS/MS analysis were done by OpAns LLC (Durham, NC). Plasma samples (both rat and macaque) were thawed at room temperature and processed by adding 160 µL of methanol (including 10 µL internal standard) to 25 µL of the sample. […]

EPPIN = EPPIN (Homo sapiens, UniProt O95925); test: AlphaScreen assay of a-EAb binding to EPPIN; conditions: n = 4, read-out: IC50, inhibition of a-EAb binding to EPPIN
Method: The AlphaScreen® assay was carried as previously described. Briefly, recombinant histidine-tagged recombinant EPPIN was pre-incubated with Ni-NTA chelate donor beads (catalog number AS101, Perkin Elmer, Waltham MA) and anti-Eppin 007 antibody was pre-incubated with Protein A acceptor beads (catalog number 6760136, Perkin Elmer, Waltham MA) for 30 minutes. Equal volumes of donor and acceptor bead mixtures were pipetted into white opaque 384-well microplates (OptiPlate-384; PerkinElmer, Waltham, MA) in a final volume of 30 μL. Plates were covered with top seal and transferred to a Synergy 2 Multiplatform automated plate reader (Biotek, Winooski, VT). After shaking for 2 min, plates were read with an excitation 680/30 filter, an emission 570/100 filter and data acquired using Gen5 software (Biotek). Each set of samples was pipetted in 4 replicates. […] A specific signal for each time point was calculated by subtracting the background signal (obtained in the absence of EPPIN) from its respective total signal. […] Non-specific interactions of compound with assay components were measured at the same time with the IgG detection kit ([…] biotinylated rabbit IgG) to generate the bead interaction: 10 μg/ml donor and acceptor beads. […]

EPPIN, sequence (O95925 22-133): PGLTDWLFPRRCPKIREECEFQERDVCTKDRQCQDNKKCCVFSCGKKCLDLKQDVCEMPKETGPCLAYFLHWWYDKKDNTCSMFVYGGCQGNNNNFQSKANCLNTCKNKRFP

**Q.** Which results are given for `COC(=O)NNc1nc(Nc2ccc(NC(=O)OC)c(O)c2)nc(SCC(=O)O)n1` [EP012]?
**A.** IC50 (human sperm): 33.4 µM; half-life [1]: < 4 min; IC50 (EPPIN): 55.4 µM

Source: paper PMC5908160, “Inhibition of sperm motility in male macaques with EP055, a potential non-hormonal male contraceptive” (PLoS ONE, 2018)
